The subject of one data set is spinal cord of EAE mice. The data set can be described thus: Cresyl violet staining of spinal cord of EAE mice (mononuclear cell infiltration). It is filed as in vivo, C57BL/6 female mice. Conditions: spinal cord white matter, day 21 after EAE induction, vs vehicle. How it is done: The present inventors induced experimental autoimmune encephalomyelitis (EAE), an animal model of multiple sclerosis, by subcutaneously injecting Myelin oligodendrocyte glycoprotein 35-55 (MOG35-55) peptide antigen into C57BL/6 female mice (FIG. 1A). For this, MOG35-55 (Ana spec, USA) and Complete freund's adjuvant (CFA) were first prepared, and MOG35-55 (2 mg/ml) was dissolved in Phosphate buffered saline (lx PBS, Sigma), and then the 25 ml of CFA was prepared by dispending 25 ml of incomplete freund's adjuvant (IFA. Sigma) in a 50 ml conical tube. Then, in a fume hood, Mycobacterium tuberculosis H37Ra (100 mg; Difco, USA) was added to the IFA in order to prepare CFA and store it in the refrigerator after vortexing before use. Thereafter, MOG35-55 and CFA containing Mycobacterium tuberculosis H37Ra was mixed in the same amount and injected into both flanks of the mice. And then Pertussis toxin (4 μg/ml, List Biological Laboratories, USA) was injected intraperitoneally on the day of immunization and on the second day after immunization. After the immunization, the mice's body weight and clinical symptoms were measured every day, and the degree of EAE progression was evaluated based on specific clinical symptoms. More details on this are provided below. […]

Data set [1] relates to spinal cord white matter of EAE mice. Nature of the data set: Zinc staining (TSQ) of spinal cord of EAE mice. It is filed as in vivo, C57BL/6 female mice. The conditions noted are these: day 21 after EAE induction.
For the next data set, the system named is cultivated neurons. Nature of the data set: Cytosolic zinc level in cultured neurons with FluoZin-3. It is filed as cell-based, mouse. Conditions: neurons exposed to zinc (300 μM) for 15 minutes, measured for 60 min. As to the method:
(§1) The mouse cortical neurons used in the present invention were extracted from the brain of a mouse embryo, and cultured in Dulbecco's modified Eagle's medium (DMEM, Gibco, Grand Island, NY, US) supplemented with 5% fetal bovine serum (FBS) and 5% horse serum (HS) under the condition of 95% humidity, 5% CO2 and 37° C. For activation and differentiation of the cells, the cells were grown to a density of 2×10^4 cells in a 24-well tissue culture plate and cultured in MEM medium without FBS and HS before treatment with zinc and compounds.
The present inventors treated FluoZin-3, a substance illuminate fluorescence if it bind to free zinc to cultivated neurons in order to verify the possibility of zinc chelation according to the treatment of 1H10 {(Z)-5-((1H-indol-3-yl)methylene)-2-((3-hydroxyphenyl)amino)thiazol-4(5H)-one} according to an embodiment of the present invention, and then measured cytosolic zinc level in the neurons for 60 min after exposing zinc (300 μM) for 15 minutes and removing the zinc. In addition, 20 μM zinc (ZnCl2) and NewPort Green DCF fluorophore, which emits fluorescence when it bind to zinc, were added to the test tube, and 1H10 of the present invention was treated at various concentrations. Clioquinol, a zinc chelator, and calcium ionophore Phosphorus ionomycin was used as controls. […]

Data set [2] has as its system mouse cortical neuron culture. The data set can be described thus: Intrinsic toxicity in cortical neuron culture, LDH cytotoxicity. Format: cell-based. The conditions noted are these: 40 μM. How it is done:
as §1
Specifically, 40 μM of each of the drugs was treated in a mouse cortical neuron culture, and LDH cytotoxicity was observed after 24 or 48 hours.

The next data set has as its system neuronal cell death. Conditions: after stroke; Eom J. W. et al., ACS Chem Neurosci. 2019; cited from earlier work.

The values that follow come from patent publication US12343335B2, “Pharmaceutical composition for treating multiple sclerosis on basis of AMPK inhibitory function and zinc homeostasis control function” (ZINCURE CORP., priority 2019, dated 2025).

For the compound `O=C1N=C(Nc2cccc(O)c2)S/C1=C\c1c[nH]c2ccccc12` [1H10, (Z)-5-((1H-indol-3-yl)methylene)-2-((3-hydroxyphenyl)amino)thiazol-4(5H)-one], in the data set with spinal cord of EAE mice, the mononuclear cell infiltration entry is reported as “significantly inhibited”. For the same compound, in data set [1], the “patch-like TSQ abnormal staining (zinc accumulation)” value is recorded as “significantly reduced”. Further, the “increase of intracellular zinc level (FluoZin-3)” value in the data set with cultivated neurons was “significantly reduced”. The “intrinsic toxicity (LDH cytotoxicity)” value in data set [2] (after 24 hours of drug treatment) worked out at 7.81±2.77%; in data set [2] (after 48 hours of drug treatment), 60.72±8.28%. The “neuronal cell death caused by zinc toxicity, excitory toxicity and oxidative damage” value with neuronal cell death is given as “reduced”.
